In brackets after ≈: the same amount, converted by molar mass. Several values for one entry are separate records, joined by “and”; a condition that tells them apart may be missing. Identical values can stand only once. Like-named read-outs stand apart in the source and are kept apart here.
How the values were obtained:
L. amazonensis [1] = test: In vitro classic microscopic test, intracellular amastigotes in infected murine peritoneal macrophages; format: cell-based, Leishmania amazonensis (IFLA/BR/1967/PH8); settings: for IC50, half-maximal inhibitory response (Figure 2): intracellular L. amazonensis, curve of one representative experiment; for IC50: the inhibitory concentration that killed 50% of the L. amazonensis: intracellular amastigotes in Balb/c peritoneal macrophages, 3 days exposure, based on percentage of infected macrophages; for IC50: Leishmania amazonensis, Peritoneal macrophage, 72 h
Protocol: The World Health Organization (WHO) reference strain L. amazonensis (IFLA/BR/1967/PH8) was used and typed as previously described. Promastigote forms were grown at 25°C in M199 medium (Sigma) supplemented with 10% heat-inactivated fetal calf serum (Cultilab), 40 mmol/L HEPES (Amersham), 0.1 mmol/L adenine (Sigma), 0.0005% hemin (Sigma), 0.0002% biotin (Sigma), 50 units/mL penicillin, and […] streptomycin (Invitrogen).
(§1) Animals were kept in the Animal Facility of the Centro de Pesquisas René Rachou/FIOCRUZ in strict accordance to the Guide for the Care and Use of Experimental Animals. The procedures were approved by the Internal Ethics Committee in Animal Experimentation (CEUA) of Fundação Oswaldo Cruz (FIOCRUZ), Brazil (Protocol L-042/08). Mice were euthanized with CO2 in an induction chamber prior to macrophage removal. Balb/c mice were injected intraperitoneally with 2 mL of 3% sodium thioglycollate medium. After 72 h, peritoneal macrophages were removed by washing with cold RPMI 1640 medium and enriched by adherence to round glass coverslips (13 mm) placed in a 4-well culture plate. Cells (2 × 10^5 cells/well) were cultured (37°C, 5% CO2, 18 h) in RPMI supplemented with 10% heat-inactivated FBS (fetal bovine serum) prior to infection with parasites. Macrophages were exposed to stationary phase promastigotes (2 × 10^6/well) at a final ratio of 1 : 10. The plates were incubated at 37°C, 5% CO2, for 5 h in BOD to allow internalization of parasites. Then, the medium was removed for the remaining noninternalized parasites. Negative control included only infected macrophages and medium. Incubations were tested in duplicate in two independent experiments. The substances were serial diluted with RPMI 1640 medium supplemented with 10% FBS at five different concentrations (50 → 3.1 μg/mL). For compounds (3) and (6), the dilution was 10 → 0.016 μg/mL. […] Infected macrophages were exposed daily to the compounds for 3 consecutive days. After this period, coverslips were collected, stained with Panoptic (Laborclin), and subsequently mounted with Entellan (Merck) on glass slides.
The in vitro classic microscopic test enables direct counting to determine the percentage of infected cells and/or the number of amastigotes. Here, the IC50 values were calculated based on the percentage of infected macrophages.

HepG2 cells = test: Cytotoxicity test, MTT method, HepG2 cells; settings: for MLD50: the minimum lethal dose that killed 50% of the cells, HepG2: MTT, 24 h; for MLD50, the minimum lethal dose (Figure 2): hepatoma HepG2 cell, curve of one representative experiment
Protocol: (§2) Balb/c murine peritoneal macrophages were obtained as described above. Cytotoxicity was determined using the MTT method (3-(4,5-dimethylthiazol-2-yl)-2,5-diphenyl tetrazolium bromide) (Sigma). HepG2 cells were kept in RPMI medium supplemented with 10% FBS, and confluent monolayers were trypsinized, washed in RPMI, and transferred to 96-well microtiter plates (4 × 10^4 cells/well) for 16–18 h. Murine macrophages were used in the concentration 2 × 10^5 cells/well in 96-well microtiter plates. The compounds were serial diluted in different concentrations (10 → 0.16 mg/mL). In both tests, the medium was removed, and the compounds were incubated for 24 h (37°C, 5% CO2). Colorimetric reaction was developed following the incubation with MTT (37°C, 5% CO2, 4 h) and addition of acidified isopropanol. The reaction was read spectrophotometrically (Spectramax M5, Molecular Devices, San Francisco, CA) with a 570 nm filter and a background of 670 nm. Incubations were tested in triplicate in two independent experiments. The minimum dose that killed 50% of the cells (MLD50) was determined, and the values were plotted to generate dose-response curves using Microcal Origin Software (Northampton, MA, USA).

murine macrophages = test: Cytotoxicity test, MTT method, murine peritoneal macrophages; settings: for MLD50: the minimum lethal dose that killed 50% of the cells, macrophages: murine peritoneal macrophages, MTT, 24 h
Protocol: as §1
as §2, with “The cell lineage HepG2 A16 was derived from a human hepatocellular carcinoma cell line HepG2 (ATCC HB-8065) and obtained from America Type Culture Collection line (ATCC). Balb/c” for “Balb/c”

L. amazonensis [2] = system: L. amazonensis; design: method as in PMID 15654435; settings: strain MHOM/BR/77/LTB0016 ref 5; cited from earlier work
L. braziliensis = system: L. braziliensis; design: method as in PMID 15654435; settings: cited from earlier work

In the case of `[Cl][Bi]([Cl])([c]1ccccc1)([c]1ccccc1)[c]1ccccc1` [(4), Triphenylbismuth dichloride], the “IC50, half-maximal inhibitory response (Figure 2)” value (L. amazonensis [1]) is reported as 5.51 µg/mL, the “IC50: the inhibitory concentration that killed 50% of the L. amazonensis” value (L. amazonensis [1]) is reported as 5.40 ± 0.16 µg/mL and the “MLD50: the minimum lethal dose that killed 50% of the cells, HepG2” value (HepG2 cells) is reported as 183.75 ± 4.77 µg/mL. For the same molecule, the “MLD50, the minimum lethal dose (Figure 2)” value (shortened to “MLD50 … (Figure 2)”) (HepG2 cells) was 187.1 µg/mL and the “MLD50: the minimum lethal dose that killed 50% of the cells, macrophages” value (murine macrophages) was 25.15 ± 0.49 µg/mL.

In the case of `[Cl][Sb]([Cl])([c]1ccccc1)([c]1ccccc1)[c]1ccccc1` [(5), triphenylantimony dichloride], the “IC50: the inhibitory concentration that killed 50% of the L. amazonensis” value (L. amazonensis [1]) is reported as 11.61 ± 7.85 µg/mL, the “MLD50: the minimum lethal dose that killed 50% of the cells, HepG2” value (HepG2 cells) is reported as 157.46 ± 37.13 µg/mL and the “MLD50: the minimum lethal dose that killed 50% of the cells, macrophages” value (murine macrophages) is reported as 30.75 ± 6.01 µg/mL.

With `[Cl][Sn]([c]1ccccc1)([c]1ccccc1)[c]1ccccc1` [(6), triphenyltin chloride] the “IC50, half-maximal inhibitory response (Figure 2)” value (L. amazonensis [1]) was 0.18 µg/mL, the “IC50: the inhibitory concentration that killed 50% of the L. amazonensis” value (L. amazonensis [1]) was 0.10 ± 0.11 µg/mL and the “MLD50: the minimum lethal dose that killed 50% of the cells, HepG2” value (HepG2 cells) was 12.04 ± 8.42 µg/mL. For the same molecule, the “MLD50 … (Figure 2)” value (HepG2 cells) was 18 µg/mL and the “MLD50: the minimum lethal dose that killed 50% of the cells, macrophages” value (murine macrophages) was 0.73 ± 0.13 µg/mL.

In the case of `CC(C)=CCC1=C(O)C(=O)c2ccccc2C1=O` [(7), 2-hydroxy-3-(3′-methyl-2-butenyl)-1,4-naphthoquinone], the IC50 (L. amazonensis [1]; read-out: IC50: the inhibitory concentration that killed 50% of the L. amazonensis, intracellular amastigotes in Balb/c peritoneal macrophages, 3 days exposure, based on percentage of infected macrophages) is reported as > 10 µg/mL, the “IC50: the inhibitory concentration that killed 50% of the L. amazonensis” value (L. amazonensis [1]) is reported as 15.48 ± 5.23 µg/mL and the “MLD50: the minimum lethal dose that killed 50% of the cells, HepG2” value (HepG2 cells) is reported as 201.77 ± 5.32 µg/mL. For the same molecule, the “SI: selective index, HepG2” value (HepG2 cells; MLD50/IC50 ratio, HepG2 cells versus L. amazonensis) was 13.03, the “SI: selective index, macrophages” value (murine macrophages; MLD50/IC50 ratio, murine macrophages versus L. amazonensis) was 11.92 and the “MLD50: the minimum lethal dose that killed 50% of the cells, macrophages” value (murine macrophages) was 184.65 ± 6.58 µg/mL. The “IC50 against L. amazonensis, previous studies” value (L. amazonensis [2]) was 5.2 ± 0.70 µg/mL (≈ 21.5 µM) and the “IC50 observed for L. braziliensis” value (L. braziliensis) was 11.9 ± 6.9 µg/mL.

For `C[C@@H]1[C@H](O)[C@@H](C)/C=C/C=C/C=C/C=C/C=C/C=C/C=C/[C@H](O[C@@H]2O[C@H](C)[C@@H](O)[C@H](N)[C@@H]2O)C[C@@H]2O[C@](O)(C[C@@H](O)C[C@@H](O)[C@H](O)CC[C@@H](O)C[C@@H](O)CC(=O)O[C@H]1C)C[C@H](O)[C@H]2C(=O)O` [Amphotericin B], the IC50 (L. amazonensis [1]; read-out: IC50: the inhibitory concentration that killed 50% of the L. amazonensis) was 0.73 ± 0.6 µg/mL (≈ 0.79 µM), the “MLD50: the minimum lethal dose that killed 50% of the cells, HepG2” value (HepG2 cells) was 644.59 ± 126.57 µg/mL and the “MLD50: the minimum lethal dose that killed 50% of the cells, macrophages” value (murine macrophages) was 179.95 ± 8.84 µg/mL.

With (Lp)(Ph3Bi)O0.5 [(1)] the “MLD50: the minimum lethal dose that killed 50% of the cells, HepG2” value (HepG2 cells) was 58.38 ± 8.47 µg/mL and the “MLD50: the minimum lethal dose that killed 50% of the cells, macrophages” value (murine macrophages) was 32.4 ± 8.20 µg/mL.

For (Lp)(Ph3Sb)OH [(2)], the “IC50: the inhibitory concentration that killed 50% of the L. amazonensis” value (L. amazonensis [1]) was > 10 µg/mL and 18.27 ± 5.58 µg/mL, the “MLD50: the minimum lethal dose that killed 50% of the cells, HepG2” value (HepG2 cells) was 325.22 ± 89.40 µg/mL and the “MLD50: the minimum lethal dose that killed 50% of the cells, macrophages” value (murine macrophages) was 130.65 ± 40.52 µg/mL.

For (Lp)(Ph3Sn) [(3)], the “IC50, half-maximal inhibitory response (Figure 2)” value (L. amazonensis [1]) was 0.15 µg/mL, the “IC50: the inhibitory concentration that killed 50% of the L. amazonensis” value (L. amazonensis [1]) was 0.17 ± 0.03 µg/mL and the “MLD50: the minimum lethal dose that killed 50% of the cells, HepG2” value (HepG2 cells) was 12.01 ± 0.17 µg/mL. The “MLD50 … (Figure 2)” value (HepG2 cells) was 11.9 µg/mL and the “MLD50: the minimum lethal dose that killed 50% of the cells, macrophages” value (murine macrophages) was 1.6 ± 0.57 µg/mL.

From paper PMC3677620, “Cytotoxicity and In Vitro Antileishmanial Activity of Antimony (V), Bismuth (V), and Tin (IV) Complexes of Lapachol” (Bioinorganic Chemistry and Applications, 2013)
